Results from patent US20010023832A1, “Chemical sensor and use thereof” (priority 1995, published 2001).

Target: the enzyme urea (Canavalia ensiformis, UniProt P07374)
Assay: Effect of potential interfering substances on the pH response of the urea(bio)sensor
Assay type: biochemical
Text: Furthermore, the effect of potential interfering substances, such as glucose, acetone, citric acid and sodium acetate, was investigated, see Table 2.

Chain of the enzyme urea (P07374 whole entry, looked up): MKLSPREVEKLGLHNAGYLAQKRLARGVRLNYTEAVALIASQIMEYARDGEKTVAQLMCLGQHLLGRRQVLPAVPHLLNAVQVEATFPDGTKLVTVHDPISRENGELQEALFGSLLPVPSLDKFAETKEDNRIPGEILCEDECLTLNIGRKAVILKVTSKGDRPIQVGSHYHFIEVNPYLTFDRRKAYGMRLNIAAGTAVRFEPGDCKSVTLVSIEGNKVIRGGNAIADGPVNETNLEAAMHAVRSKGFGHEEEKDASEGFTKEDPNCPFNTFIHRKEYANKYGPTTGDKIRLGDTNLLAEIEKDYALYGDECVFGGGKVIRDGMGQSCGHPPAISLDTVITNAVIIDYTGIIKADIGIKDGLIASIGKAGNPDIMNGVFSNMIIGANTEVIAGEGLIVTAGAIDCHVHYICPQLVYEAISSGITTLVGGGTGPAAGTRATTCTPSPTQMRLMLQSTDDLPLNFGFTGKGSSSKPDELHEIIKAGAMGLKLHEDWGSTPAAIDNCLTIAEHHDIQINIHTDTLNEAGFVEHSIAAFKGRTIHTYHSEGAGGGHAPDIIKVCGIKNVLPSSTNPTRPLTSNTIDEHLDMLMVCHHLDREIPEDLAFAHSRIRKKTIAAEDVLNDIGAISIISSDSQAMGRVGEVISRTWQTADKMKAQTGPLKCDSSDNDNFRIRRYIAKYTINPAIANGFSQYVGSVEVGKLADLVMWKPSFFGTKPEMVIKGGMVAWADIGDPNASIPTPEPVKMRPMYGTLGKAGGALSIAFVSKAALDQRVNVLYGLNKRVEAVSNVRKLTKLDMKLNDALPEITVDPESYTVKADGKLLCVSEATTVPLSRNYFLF

Row | SMILES | Change in ΔpH (%) (substance 1 mM in sample solution, no stabiliser) | Change in ΔpH (%) (substance 1 mM, value in parentheses, stabiliser (for instance EDTA) injected together with the enzyme) | Change in ΔpH (%) (substance 2 mM in sample solution, no stabiliser) | Change in ΔpH (%) (substance 2 mM, value in parentheses, stabiliser (for instance EDTA) injected together with the enzyme) | Change in ΔpH (%) (substance 0.6 mM in sample solution, urea(bio)sensor, pH electrode)
1 | O=S(=O)([O-])[O-].[Cu+2] [Copper sulphate] | −38 | 0 | −65 | 0 | 
2 | CC(=O)[O-].[Na+] [Sodium acetate] |  |  |  |  | 0
